The source of these data is ChEMBL document CHEMBL5661943, “ASAP - In vitro antiviral effect” (2024).

“And” between values parts separate entries of the source, which are not always exact repeats. Equal entries are not always repeated. A value given as a limit tells only on which side of the number the result lay.

Assay [1] concerns dengue virus type 2. The assay can be described thus: Functional assay to measure dose dependent changes in antiviral-drug inhibitory efficacy against Dengue virus type 2 New Guinea C in Vero E6 miRFP670 cells (cotreated with P-gp inhibitor, CP100356). Cells are treated with antiviral candidates that are serially diluted, following infection, cells are fixed. EC50 is reported via analysis of fluorescence intensity using high-content imager. The …. The assay is classed as organism-based, Chlorocebus sabaeus, Vero C1008. As to conditions: for EC90: P-gp concentration 500 nM, P-gp inhibitor CP100356.

For assay [2], the system named is Zika virus. The experiment in a line: EC50 is reported via analysis of immunofluorescence staining. The assay has been performed by Icahn School of Medicine at Mount Sinai. The format is functional, organism-based, Chlorocebus sabaeus, VeroE6/TMPRSS2. As to conditions: Zika virus.
The subject of assay [3] is Zika virus. The assay can be described thus: Functional CPE-based assay to measure dose dependent changes in antiviral-drug inhibitory efficacy against Zika virus MR766 in Vero E6 miRFP670 cells (cotreated with P-gp inhibitor, CP100356). Cells are treated with antiviral candidates that are serially diluted. EC50 is reported via analysis of MTS assay as a readout of CPE. The assay has been performed by KU Leuven. The assay is classed as organism-based, Chlorocebus sabaeus, Vero C1008. The settings on record: for EC90: P-gp concentration 500 nM, P-gp inhibitor CP100356.

In assay [4] the test system is dengue virus type 2. The experiment in a line: Functional immunofluorescence assay to measure dose dependent changes in antiviral-drug inhibitory efficacy against Dengue virus type 2 Thailand/16681/84 in Vero E6/TMPRSS2 cells (cotreated with P-gp inhibitor, Elacridar). Cells are treated with antiviral candidates that are serially diluted, following infection, cells are fixed. EC50 is reported via analysis of immunofluorescence staining. The assay has been performed by Icahn School of Medicine at Mount Sinai. The format is organism-based, Chlorocebus sabaeus, VeroE6/TMPRSS2. The settings on record: Dengue virus; for EC90: P-gp concentration 2 uM, P-gp inhibitor Elacidar.

`O=C(NC[C@H]1CCCO1)[C@H](Nc1ccc2c(c1)CNC2)c1cc(Cl)cc2[nH]ncc12`: the concentration for a half-maximal effect (EC50) in the assay on dengue virus type 2 [1] (Dengue virus, Vero C1008) is greater than 6.25 µM; with Zika virus [2] (VeroE6/TMPRSS2), 0.309 µM; in the assay on Zika virus [3] (Zika virus, Vero C1008), greater than 50 µM; in the assay with dengue virus type 2 [4] (VeroE6/TMPRSS2), greater than 16.7 µM. In addition, the EC90 in the assay on dengue virus type 2 [1] (Dengue virus, Vero C1008, Maximum measured 107.029 %, Minimum measured 98.467 %) was greater than 6.25 µM; in the assay with Zika virus [2] (VeroE6/TMPRSS2, Baseline response 0 %, Hill slope -0.364, Maximum measured 91.96 %, Maximum response 100 %, Minimum measured 21.463 %, P-gp concentration 2 uM, R squared 0.587, P-gp inhibitor Elacidar), greater than 16.7 µM; in the assay with Zika virus [3] (Zika virus, Vero C1008, Baseline response 0 %, Hill slope 0.096, Maximum measured 37.493 %, Maximum response 100 %, Minimum measured 16.803 %, R squared 0.054), greater than 50 µM; with dengue virus type 2 [4] (VeroE6/TMPRSS2, Maximum measured 188.503 %, Minimum measured 79.522 %) it was greater than 16.7 µM.

In the case of `Cn1cc2cc(Cl)cc(C(=O)Nc3ccc4c(c3)CNC4)c2n1`, the EC50 in the assay on dengue virus type 2 [1] (Dengue virus, Vero C1008) is 0.704 µM; in the assay on Zika virus [2] (VeroE6/TMPRSS2), 0.643 µM; with Zika virus [3] (Zika virus, Vero C1008), 0.514 µM; in the assay with dengue virus type 2 [4] (VeroE6/TMPRSS2), greater than 5.56 µM. Moreover, the EC90 is less than 0.391 µM in the assay on dengue virus type 2 [1] (Dengue virus, Vero C1008, Baseline response 0 %, Hill slope 0.764, Maximum measured 122.857 %, Maximum response 100 %, Minimum measured 34.33 %, R squared 0.405); greater than 5.56 µM in the assay on Zika virus [2] (VeroE6/TMPRSS2, Baseline response 0 %, Hill slope -0.814, Maximum measured 136.159 %, Maximum response 100 %, Minimum measured 33.863 %, P-gp concentration 2 uM, R squared 0.555, P-gp inhibitor Elacidar); greater than 0.781 µM in the assay with Zika virus [3] (Zika virus, Vero C1008, Baseline response 0 %, Hill slope 4.196, Maximum measured 85.26 %, Maximum response 100 %, Minimum measured 23.993 %, R squared 0.942); greater than 5.56 µM in the assay on dengue virus type 2 [4] (VeroE6/TMPRSS2, Maximum measured 98.349 %, Minimum measured 47.733 %).

`Cn1cc(CCc2nc3c(C(=O)Nc4ccc5c(c4)CNC5)cc(Cl)cc3[nH]2)cn1`: the EC50 in the assay on dengue virus type 2 [1] (Dengue virus, Vero C1008) was greater than 50 µM; in the assay with Zika virus [2] (VeroE6/TMPRSS2), greater than 16.7 µM; in the assay on Zika virus [3] (Zika virus, Vero C1008), greater than 50 µM; in the assay with dengue virus type 2 [4] (VeroE6/TMPRSS2) it was greater than 16.7 µM. Further, the EC90 in the assay on dengue virus type 2 [1] (Dengue virus, Vero C1008, Maximum measured 132.966 %, Minimum measured 89.816 %) is greater than 50 µM; in the assay on Zika virus [2] (VeroE6/TMPRSS2, Maximum measured 69.995 %, Minimum measured 22.891 %, P-gp concentration 2 uM, P-gp inhibitor Elacidar), greater than 16.7 µM; in the assay with Zika virus [3] (Zika virus, Vero C1008, Baseline response 0 %, Hill slope 0.081, Maximum measured 22.254 %, Maximum response 100 %, Minimum measured 2.34 %, R squared 0.041) it was greater than 50 µM; in the assay on dengue virus type 2 [4] (VeroE6/TMPRSS2, Baseline response 0 %, Hill slope -0.053, Maximum measured 79.122 %, Maximum response 100 %, Minimum measured 42.376 %, R squared 0.043) it was greater than 16.7 µM.

For the compound `CNC(=O)[C@H](Nc1ccc2c(c1)CNC2)c1cc(Cl)cc2[nH]ncc12`, the EC50 with dengue virus type 2 [1] (Dengue virus, Vero C1008) is greater than 50 µM; in the assay with Zika virus [2] (VeroE6/TMPRSS2), greater than 50 µM; with Zika virus [3] (Zika virus, Vero C1008), greater than 50 µM; in the assay on dengue virus type 2 [4] (VeroE6/TMPRSS2), greater than 50 µM. The 90% effect concentration (EC90) in the assay with dengue virus type 2 [1] (Dengue virus, Vero C1008, Baseline response 0 %, Hill slope 0.363, Maximum measured 102.287 %, Maximum response 100 %, Minimum measured 71.268 %, R squared 0.122) is greater than 50 µM; with Zika virus [2] (VeroE6/TMPRSS2, Maximum measured 122.029 %, Minimum measured 43.627 %, P-gp concentration 2 uM, P-gp inhibitor Elacidar), greater than 50 µM; in the assay with Zika virus [2] (VeroE6/TMPRSS2, Baseline response 0 %, Hill slope 0.082, Maximum measured 101.866 %, Maximum response 100 %, Minimum measured 51.114 %, P-gp concentration 2 uM, R squared 0.025, P-gp inhibitor Elacidar), greater than 50 µM; in the assay on Zika virus [3] (Zika virus, Vero C1008, Baseline response 0 %, Hill slope 0.1, Maximum measured 6.056 %, Maximum response 100 %, Minimum measured 1.325 %, R squared 0.024), greater than 50 µM; in the assay with dengue virus type 2 [4] (VeroE6/TMPRSS2, Maximum measured 241.837 %, Minimum measured 83.65 %), greater than 50 µM.

For the compound `O=C(NC[C@H]1CCCO1)[C@H](Nc1ccc2c(c1)CNC2)c1cc(Cl)cc(C2CC2)c1`, the EC50 in the assay on dengue virus type 2 [1] (Dengue virus, Vero C1008) was greater than 50 µM; in the assay with Zika virus [2] (VeroE6/TMPRSS2), greater than 5.56 µM; with Zika virus [3] (Zika virus, Vero C1008), greater than 25 µM; in the assay on dengue virus type 2 [4] (VeroE6/TMPRSS2), greater than 50 µM. Further, the EC90 was greater than 50 µM in the assay with dengue virus type 2 [1] (Dengue virus, Vero C1008, Baseline response 0 %, Hill slope -0.736, Maximum measured 108.993 %, Maximum response 100 %, Minimum measured 54.851 %, R squared 0.259); greater than 5.56 µM in the assay on Zika virus [2] (VeroE6/TMPRSS2, Maximum measured 140.093 %, Minimum measured 93.076 %, P-gp concentration 2 uM, P-gp inhibitor Elacidar); greater than 5.56 µM with Zika virus [2] (VeroE6/TMPRSS2, Baseline response 0 %, Hill slope 0.091, Maximum measured 92.664 %, Maximum response 100 %, Minimum measured 73.777 %, P-gp concentration 2 uM, R squared 0.029, P-gp inhibitor Elacidar); greater than 25 µM in the assay on Zika virus [3] (Zika virus, Vero C1008, Baseline response 0 %, Hill slope 2.187, Maximum measured 41.665 %, Maximum response 100 %, Minimum measured -0.442 %, R squared 0.938); greater than 50 µM with dengue virus type 2 [4] (VeroE6/TMPRSS2, Maximum measured 244.293 %, Minimum measured 137.827 %).

Turning to `Cc1c(C(=O)Nc2cc([C@H]3CCOC3)ccn2)cc(C2CC2)n1C`, the 90% effect concentration (EC90) with dengue virus type 2 [1] (Baseline response 0 %, Hill slope 0.336, Maximum measured 108.09 %, Maximum response 100 %, Minimum measured 73.455 %, R squared 0.31) was greater than 50 µM; in the assay on dengue virus type 2 [1] (Dengue virus, Vero C1008, Baseline response 0 %, Hill slope -3.691, Maximum measured 104.755 %, Maximum response 100 %, Minimum measured 84.933 %, R squared 0.225) it was greater than 50 µM; in the assay with Zika virus [2] (VeroE6/TMPRSS2), 49.5 µM; in the assay with Zika virus [3] (Zika virus, Vero C1008, Maximum measured 3.949 %, Minimum measured -5.577 %), greater than 50 µM; in the assay on Zika virus [3] (Zika virus, Vero C1008, Maximum measured -8.54 %, Minimum measured -21.261 %), greater than 50 µM; in the assay with dengue virus type 2 [4] (VeroE6/TMPRSS2, Maximum measured 144.829 %, Minimum measured 95.742 %) it was greater than 50 µM. For the same compound, the EC50 in the assay with dengue virus type 2 [1] (Dengue virus, Vero C1008) is greater than 50 µM; with Zika virus [2] (VeroE6/TMPRSS2), 0.157 µM; with Zika virus [3] (Zika virus, Vero C1008), greater than 50 µM; in the assay on dengue virus type 2 [4] (VeroE6/TMPRSS2), greater than 50 µM.

Turning to `N[C@H]1Cc2ccc(NC(=O)c3cc(Cl)cc4[nH]ncc34)cc2C1`, the EC50 in the assay with dengue virus type 2 [1] (Dengue virus, Vero C1008) is greater than 50 µM; with Zika virus [2] (VeroE6/TMPRSS2), 6.4 µM; in the assay with Zika virus [3] (Zika virus, Vero C1008), greater than 50 µM; in the assay on dengue virus type 2 [4] (VeroE6/TMPRSS2), greater than 50 µM. Besides, the EC90 was greater than 50 µM with dengue virus type 2 [1] (Dengue virus, Vero C1008, Baseline response 0 %, Hill slope -0.493, Maximum measured 107.038 %, Maximum response 100 %, Minimum measured 74.642 %, R squared 0.117); greater than 50 µM in the assay with Zika virus [2] (VeroE6/TMPRSS2, Baseline response 0 %, Hill slope -0.367, Maximum measured 76.386 %, Maximum response 70 %, Minimum measured 22.981 %, P-gp concentration 2 uM, R squared 0.54, P-gp inhibitor Elacidar); greater than 50 µM with Zika virus [3] (Zika virus, Vero C1008, Baseline response 0 %, Hill slope 8.874, Maximum measured 2.747 %, Maximum response 100 %, Minimum measured -3.726 %, R squared 0.015); greater than 50 µM in the assay on dengue virus type 2 [4] (VeroE6/TMPRSS2, Baseline response 0 %, Hill slope -1.504, Maximum measured 137.122 %, Maximum response 100 %, Minimum measured 76.636 %, R squared 0.034).

Regarding `Cc1c(C(=O)Nc2cc(-c3cccnc3)ccn2)cc(C2CC2)n1C`, the EC90 in the assay with dengue virus type 2 [1] (Baseline response 0 %, Hill slope 0.498, Maximum measured 89.901 %, Maximum response 100 %, Minimum measured 65.385 %, R squared 0.493) is greater than 6.25 µM; in the assay on dengue virus type 2 [1] (Baseline response 0 %, Hill slope 0.771, Maximum measured 124.592 %, Maximum response 100 %, Minimum measured 47.777 %, R squared 0.6) it was less than 0.391 µM; in the assay with Zika virus [2] (VeroE6/TMPRSS2), 32.7 µM; in the assay with Zika virus [3] (Baseline response 0 %, Hill slope 10.672, Maximum measured 18.054 %, Maximum response 100 %, Minimum measured -2.868 %, R squared 0.771), greater than 50 µM; in the assay on Zika virus [3] (Zika virus, Vero C1008, Baseline response 0 %, Hill slope 1.591, Maximum measured 7.654 %, Maximum response 100 %, Minimum measured -2.289 %, R squared 0.158), greater than 50 µM; in the assay with dengue virus type 2 [4] (VeroE6/TMPRSS2, Baseline response 0 %, Hill slope -10.528, Maximum measured 161.281 %, Maximum response 100 %, Minimum measured 29.52 %, R squared 0.091) it was greater than 50 µM. Further, the EC50 in the assay with dengue virus type 2 [1] (vero c1008) is 0.83 µM and > 6.25 µM; in the assay with Zika virus [2] (VeroE6/TMPRSS2) it was 14.5 µM; in the assay with Zika virus [3] (Zika virus, Vero C1008), greater than 50 µM; in the assay with dengue virus type 2 [4] (VeroE6/TMPRSS2) it was 46 µM.

By EC50 is commonly meant the midpoint of the concentration-response curve. The EC90 is the concentration at which the effect reaches the 90% level.
